Assay results taken from patent US20090275551A1, “Fluvastatin for the treatment of patients with a history of muscle related side effects with other statins” (priority 2007, published 2009).

Tests used:
[1] = Randomized, double-blind 12-week study: safety, tolerability and recurrence of muscle-related side effects (MRSE); format: in vivo, human (patients)
Procedure: (§1) A randomized, double-blind, double-dummy, parallel-group, multicenter study evaluating the efficacy and tolerability of fluvastatin XL 80 mg/day, and ezetimibe 10 mg/day, alone or in combination, is conducted according to the ethical principles of the Guidelines for Good Clinical Practice and the Declaration of Helsinki of the World Medical Association. Patients are recruited in 27 centers in Germany, Greece, Norway, Russia, Turkey and the United States. The protocol is approved by local ethics committees or institutional review boards. Written, informed consent before randomization are provided by all patients.
After a minimum 5-week lead-in, drug wash-out and diet stabilization period, patients who fulfilled the study criteria are randomized in a 1:1:1 ratio to 12-week treatment with fluvastatin XL 80 mg plus matched placebo for ezetimibe 10 mg, or ezetimibe 10 mg plus matched placebo for fluvastatin XL 80 mg, or fluvastatin XL 80 mg plus ezetimibe 10 mg. For blinding purposes tablets for fluvastatin XL/placebo and capsules for ezetimibe/placebo are used. Treatment assignment is unbiased and concealed from patients and investigator staff, by a randomization list produced by the sponsor using a validated system that automates the random assignment of treatment groups. Treatment remains fully blinded from the time of randomization until database lock. Trial medication is taken with water at bedtime. Compliance is assessed by study personnel using pill counts at each visit. Patients are to continue a low saturated fat and cholesterol-restricted diet and exercise regimen.
The study enrolls men and women 18 years of age or older with dyslipidemia who have previously experienced documented MRSEs that have led to cessation of statin treatment, or patients currently receiving statin treatment (other than fluvastatin) whose quality of life is affected by MRSEs and require switching to an alternative treatment. MRSEs include myalgia (defined as muscle ache, pain or discomfort), muscle cramps, lack of strength during effort, heaviness and/or weakness without creatine kinase elevation >3 times upper limit of normal.
Safety evaluations include regular monitoring of all adverse events, urine, hematology, blood chemistry, as well as physical examination and assessment of vital signs. MRSEs are assessed before and during the study using a standard questionnaire as detailed in Table 1.
Objectives of this study are to assess LDL-C reduction from baseline of (1) fluvastatin XL 80 mg in combination with ezetimibe 10 mg compared with ezetimibe 10 mg monotherapy and (2) fluvastatin XL 80 mg compared with ezetimibe 10 mg. Objectives of the study are also include (1) to assess the tolerability of fluvastatin XL 80 mg and ezetimibe 10 mg alone or in combination as determined by the rate of recurrence of MRSEs and the rate of recurrence of MRSEs leading to study drug discontinuation; (2) to assess the effect of fluvastatin XL 80 mg alone or in combination with ezetimibe 10 mg on total cholesterol, triglycerides, HDL-C, LDL-C:HDL-C ratio, Apo-AI and Apo-B compared with ezetimibe 10 mg monotherapy; (3) to determine the number of patients in each treatment group who reached target LDL-C levels according to the current National Cholesterol Education Program guidelines, (4) to assess the effect of fluvastatin XL 80 mg and ezetimibe 10 mg alone or in combination on hs-CRP; and (5) to assess the overall safety and tolerability profile of fluvastatin XL 80 mg and ezetimibe 10 mg alone or in combination.
With a sample size of 70 patients per treatment group, the study has 90% power to detect a difference of 9.65% between the population means, using a two-sided comparison with α equal to 0.05 and assuming a standard deviation of 17.5% in both groups. Efficacy and tolerability analyses are performed using the intent-to-treat population, defined as all patients receiving at least 1 dose of study drug. […]

[2] = tested on: LDL-C; experiment: Randomized, double-blind 12-week study: lipid-lowering efficacy in patients with prior statin MRSEs; format: in vivo, human (patients)
Procedure: as §1
After a minimum 5-week lead-in, drug wash-out and diet stabilization period, patients who fulfilled the study criteria are randomized in a 1:1:1 ratio to 12-week treatment with fluvastatin XL 80 mg plus matched placebo for ezetimibe 10 mg, or ezetimibe 10 mg plus matched placebo for fluvastatin XL 80 mg, or fluvastatin XL 80 mg plus ezetimibe 10 mg. […] Compliance is assessed by study personnel using pill counts at each visit. […]
Initial screening includes medical history, physical examination, clinical chemistry, hematology and urinalysis. […] AI and Apo-B are measured at weeks 0, 4, 8 and 12. High sensitivity C-reactive protein (hs-CRP) is measured at weeks 0 and 12. […] LDL-C is calculated using the Friedewald formula when triglyceride levels <400 mg/dL. […]

Structure (SMILES): O=C1[C@H](CC[C@H](O)c2ccc(F)cc2)[C@@H](c2ccc(O)cc2)N1c1ccc(F)cc1 [Ezetimibe]
- MRSE recurrence leading to discontinuation, incidence rate ([1]; 12-week treatment): 8%
- MRSE recurrence leading to discontinuation, number of patients ([1]; 12-week treatment): 5 patients
- any MRSE recurrence, incidence rate ([1]; 12-week treatment): 24%
- any MRSE recurrence, number of patients ([1]; 12-week treatment): 16 patients
- patients prematurely discontinued from the study due to adverse events ([1]; 12-week treatment): 8 patients
- patients reporting an adverse event ([1]; 12-week treatment, safety population): 39 patients
- median time to first event, MRSE recurrence leading to discontinuation ([1]; in vivo): 2.57 weeks
- median time to first event, any MRSE recurrence ([1]; in vivo): 3.07 weeks
- LDL-C lowering from baseline ([2]; baseline to week 12 or study end (LOCF), fluvastatin XL 80 mg/day, ezetimibe 10 mg/day): 15.6%
- patients achieving a LDL-C level of <100 mg/dL at study end ([2]; subgroup of 91 patients in the high-risk category): 4%
